Measurements as given in the NIST ThermoML archive (doi:10.1016/j.jct.2016.03.026).

Assay: xn = mol fraction of the nth substance listed
Details: 263.15 K, Fluid (supercritical or subcritical phases), Vibrating tube method, x1 = 0.97

O=C=O [carbon dioxide] + CO
Details | mass density [kg/m3]
7525 kPa | 1006.96
7550 kPa | 1007.04
7575 kPa | 1007.2
7600 kPa | 1007.28
7625 kPa | 1007.38
7650 kPa | 1007.53
7675 kPa | 1007.61
7700 kPa | 1007.76
7725 kPa | 1007.86
7750 kPa | 1007.94
7775 kPa | 1008.1
7800 kPa | 1008.18
7825 kPa | 1008.35
7850 kPa | 1008.43
7875 kPa | 1008.51
7900 kPa | 1008.68
7925 kPa | 1008.76
7950 kPa | 1008.84
7975 kPa | 1009
8000 kPa | 1009.08
8025 kPa | 1009.16
8050 kPa | 1009.33
8075 kPa | 1009.41
8100 kPa | 1009.54
8125 kPa | 1009.66
8150 kPa | 1009.74
8175 kPa | 1009.86
8200 kPa | 1009.98
8225 kPa | 1010.06
8250 kPa | 1010.23
8275 kPa | 1010.31
8300 kPa | 1010.39
8325 kPa | 1010.56
8350 kPa | 1010.64
8375 kPa | 1010.74
8400 kPa | 1010.88
8425 kPa | 1010.96
8450 kPa | 1011.04
8475 kPa | 1011.21
8500 kPa | 1011.29
8525 kPa | 1011.44
8550 kPa | 1011.54
8575 kPa | 1011.62
8600 kPa | 1011.73
8625 kPa | 1011.86
8650 kPa | 1011.94
8675 kPa | 1012.05
8700 kPa | 1012.19
8725 kPa | 1012.27
8750 kPa | 1012.41
8775 kPa | 1012.52
8800 kPa | 1012.6
8825 kPa | 1012.76
8850 kPa | 1012.85
8875 kPa | 1012.93
8900 kPa | 1013.03
8925 kPa | 1013.17
8950 kPa | 1013.25
8975 kPa | 1013.35
9000 kPa | 1013.49
9025 kPa | 1013.58
9050 kPa | 1013.66
9075 kPa | 1013.83
9100 kPa | 1013.91
9125 kPa | 1013.99
9150 kPa | 1014.08
9175 kPa | 1014.23
9200 kPa | 1014.31
9225 kPa | 1014.39
9250 kPa | 1014.56
9275 kPa | 1014.64
9300 kPa | 1014.72
9325 kPa | 1014.89
9350 kPa | 1014.97
9375 kPa | 1015.05
9400 kPa | 1015.13
9425 kPa | 1015.3
9450 kPa | 1015.38
9475 kPa | 1015.46
9500 kPa | 1015.54
9525 kPa | 1015.7
9550 kPa | 1015.78
9575 kPa | 1015.87
9600 kPa | 1016.03
9625 kPa | 1016.11
9650 kPa | 1016.19
9675 kPa | 1016.28
9700 kPa | 1016.44
9725 kPa | 1016.52
9750 kPa | 1016.6
9775 kPa | 1016.77
9800 kPa | 1016.85
9825 kPa | 1016.93
9850 kPa | 1017.01
9875 kPa | 1017.17
9900 kPa | 1017.25
9925 kPa | 1017.34
9950 kPa | 1017.47
9975 kPa | 1017.58
10000 kPa | 1017.66
10025 kPa | 1017.74
10050 kPa | 1017.83
10075 kPa | 1017.99
10100 kPa | 1018.07
10125 kPa | 1018.15
10150 kPa | 1018.23
10175 kPa | 1018.34
10200 kPa | 1018.48
10225 kPa | 1018.56
10250 kPa | 1018.68
10275 kPa | 1018.81
10300 kPa | 1018.89
10325 kPa | 1018.97
10350 kPa | 1019.09
10375 kPa | 1019.21
10400 kPa | 1019.3
10425 kPa | 1019.38
10450 kPa | 1019.46
10475 kPa | 1019.62
10500 kPa | 1019.7
10525 kPa | 1019.78
10550 kPa | 1019.87
